Data as given in ChEMBL document CHEMBL1201862, “PubChem BioAssay data set” (2004).
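Cultured in 96-well plates, cells were exposed to test compound for 48 hours across five concentrations. GI50 marks 50% less growth.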 The source made the active and inactive calls. Rule as the data show it: active = GI50 up to about 1.1 µM and inactive = higher.

Tests used:
Assay in all cases: NCI anticancer screen, dose series, 48 h
TK-10 = system: TK-10
EKVX = system: EKVX
NCI-H23 = system: NCI-H23
CAKI-1 = system: CAKI-1
K562 = system: K562
SNB-19 = system: SNB-19
HCT-15 = system: HCT-15
CCRF-CEM = system: CCRF-CEM
HOP-62 = system: HOP-62
HCT-116 = system: HCT-116
SF-295 = system: SF-295
HL-60 = system: HL-60
DU-145 = system: DU-145
COLO 205 = system: COLO 205
SF-539 = system: SF-539
HCC 2998 = system: HCC 2998
A549 = system: A549
OVCAR-4 = system: OVCAR-4
T47D = system: T47D
HOP-92 = system: HOP-92

Compound | GI50 (TK-10) | GI50 (EKVX) | GI50 (NCI-H23) | GI50 (CAKI-1) | GI50 (K562) | GI50 (SNB-19) | GI50 (HCT-15) | GI50 (CCRF-CEM) | GI50 (HOP-62) | GI50 (HCT-116) | GI50 (SF-295) | GI50 (HL-60) | GI50 (DU-145) | GI50 (COLO 205) | GI50 (SF-539) | GI50 (HCC 2998) | GI50 (A549) | GI50 (OVCAR-4) | GI50 (T47D) | GI50 (HOP-92)
S=C(c1c[nH]c2ccccc12)N1CCOCC1 | > 100 µM (inactive) | 43.1 µM (inactive) | > 100 µM (inactive) | > 100 µM (inactive) | > 100 µM (inactive) | > 100 µM (inactive) | > 100 µM | > 100 µM (inactive) | > 100 µM (inactive) | > 100 µM (inactive) | > 100 µM (inactive) | > 100 µM (inactive) | > 100 µM (inactive) | > 100 µM (inactive) | > 100 µM (inactive) | – | – | – | – | –
COc1cccc2c1C1(O)C2CCCCCCCCCC12OCCCO2 (stereo not drawn) | 49.7 µM (inactive) | – | > 58.6 µM (inactive) | > 100 µM (inactive) | 6.19 µM (inactive) | 27.7 µM (inactive) | 4.93 µM | 8.32 µM (inactive) | > 38.3 µM (inactive) | 6.81 µM (inactive) | 15.1 µM (inactive) | 5.66 µM (inactive) | 92.7 µM (inactive) | > 33.8 µM (inactive) | 8.38 µM (inactive) | > 34.2 µM (inactive) | > 34.5 µM (inactive) | > 100 µM (inactive) | 23.4 µM (inactive) | –
COc1nc(C#CC(C)(C)C)nc(OC)n1 | 27.4 µM (inactive) | 36 µM (inactive) | 19.7 µM (inactive) | 22.3 µM (inactive) | 38 µM (inactive) | > 100 µM (inactive) | 20.8 µM | – | 34.4 µM (inactive) | 15.7 µM (inactive) | 32.4 µM (inactive) | 25.8 µM (inactive) | 23.6 µM (inactive) | 31.8 µM (inactive) | 28.8 µM (inactive) | – | 25.4 µM (inactive) | 16.4 µM (inactive) | 55.5 µM (inactive) | –
CN(c1ccccc1)S(=O)(=O)c1ccc([N+](=O)[O-])cc1 | > 100 µM (inactive) | > 100 µM (inactive) | 83.4 µM (inactive) | > 100 µM (inactive) | – | > 100 µM (inactive) | > 100 µM | – | > 100 µM (inactive) | > 100 µM (inactive) | > 100 µM (inactive) | 57 µM (inactive) | > 100 µM (inactive) | > 100 µM (inactive) | > 100 µM (inactive) | – | > 100 µM (inactive) | > 100 µM (inactive) | > 100 µM (inactive) | –
NC(=O)N/N=C(\Cc1nc2ccc(Cl)cc2nc1O)C(=O)Nc1ccc(Cl)cc1Cl | > 100 µM (inactive) | 10.6 µM (inactive) | > 100 µM (inactive) | > 100 µM (inactive) | > 100 µM (inactive) | > 100 µM (inactive) | > 100 µM | > 100 µM (inactive) | – | > 100 µM (inactive) | > 100 µM (inactive) | > 100 µM (inactive) | > 100 µM (inactive) | > 100 µM (inactive) | > 100 µM (inactive) | > 100 µM (inactive) | > 100 µM (inactive) | > 100 µM (inactive) | > 100 µM (inactive) | –
COC(=O)C(C(=O)C(=O)Nc1ccc(OC)cc1[N+](=O)[O-])c1nc2cc(C)c(C)cc2nc1O (stereo not drawn) | > 100 µM (inactive) | 74.6 µM (inactive) | > 100 µM (inactive) | > 100 µM (inactive) | 31.6 µM (inactive) | > 100 µM (inactive) | > 100 µM | > 100 µM (inactive) | > 100 µM (inactive) | > 100 µM (inactive) | > 100 µM (inactive) | > 100 µM (inactive) | – | > 100 µM (inactive) | > 100 µM (inactive) | > 100 µM (inactive) | > 100 µM (inactive) | > 100 µM (inactive) | – | > 100 µM (inactive)
CCN(CC)c1c(-c2c(N(CC)CC)c(OC(C)=O)c3sccn3c2=O)c(=O)n2ccsc2c1OC(C)=O | 33.2 µM (inactive) | > 100 µM (inactive) | > 100 µM (inactive) | > 100 µM (inactive) | > 100 µM (inactive) | 59.6 µM (inactive) | > 100 µM | > 100 µM (inactive) | 21.3 µM (inactive) | 71 µM (inactive) | 32 µM (inactive) | > 100 µM (inactive) | > 100 µM (inactive) | > 100 µM (inactive) | 85.5 µM (inactive) | > 100 µM (inactive) | – | > 100 µM (inactive) | – | > 100 µM (inactive)
O=C(c1ccc(Cl)cc1)c1ccc(OCCCOc2ccc(C(=O)c3ccc(Cl)cc3)cc2Cl)c(Cl)c1 | > 100 µM (inactive) | > 100 µM (inactive) | > 100 µM (inactive) | > 100 µM (inactive) | > 100 µM (inactive) | > 100 µM (inactive) | > 100 µM | > 100 µM (inactive) | > 100 µM (inactive) | > 100 µM (inactive) | > 100 µM (inactive) | > 100 µM (inactive) | – | > 100 µM (inactive) | > 100 µM (inactive) | > 100 µM (inactive) | > 100 µM (inactive) | > 100 µM (inactive) | – | > 100 µM (inactive)
